Experimental data as given in publication PMC11184945, “Inhibition mechanism investigation of quercetagetin as a potential tyrosinase inhibitor” (Frontiers in Chemistry, 2024).

Target: T1, tyrosinase (mushroom) (Agaricus bisporus, UniProt C7FF04)
T1 construct: gene PPO3
Experiment: L-dopa oxidation assay at […] nm with Lineweaver-Burk kinetics (Ki […], Kis […]); static fluorescence quenching, CD
Assay type: biochemical

T1 sequence (C7FF04 2-392): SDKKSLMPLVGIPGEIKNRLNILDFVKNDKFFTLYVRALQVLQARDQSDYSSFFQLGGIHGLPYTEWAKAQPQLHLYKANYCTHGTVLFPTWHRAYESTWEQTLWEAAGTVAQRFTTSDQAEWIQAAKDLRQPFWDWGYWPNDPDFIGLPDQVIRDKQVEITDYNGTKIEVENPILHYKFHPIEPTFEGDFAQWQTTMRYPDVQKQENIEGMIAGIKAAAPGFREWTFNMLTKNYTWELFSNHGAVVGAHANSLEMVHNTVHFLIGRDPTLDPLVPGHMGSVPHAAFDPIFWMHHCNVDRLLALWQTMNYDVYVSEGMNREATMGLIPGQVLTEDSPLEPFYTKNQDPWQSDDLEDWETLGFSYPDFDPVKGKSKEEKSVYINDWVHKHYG

O=c1c(O)c(-c2ccc(O)c(O)c2)oc2cc(O)c(O)c(O)c12 [quercetagetin, 3,3′,4′,5,6,7-hexahydroxyflavone]
IC50: 190 ± 10 µM
